Like-named read-outs stand apart in the source and are kept apart here.
How the values were obtained:
[1] = mouse, in vivo
[2] = Antifibrillatory effect in mice: protection against chloroform-induced ventricular fibrillation, oral (Table I); assay type: in vivo, female Swiss albino mice (HAM/ICR)
Experimental: (§1) The experiments on mice were performed according to a modification of the method described by J. W. Lawson, "Antiarrhythmic activity of some isoquinoline derivatives determined by a rapid screening procedure in the mouse," J. Pharm. Exp. Therap. Vol. 160, pp. 22-31 (1968). This method is based upon the observation that when an unanesthetized, untreated mouse is exposed to chloroform vapor its respiration soon ceases and at that time both electrocardiographic and visual inspection reveal that the cardiac ventricles are fibrillating. If the mouse is treated appropriately with known antiarrhythmic agents prior to exposure to chloroform, the respiratory failure is not accompanied by ventricular fibrillation.

[3] = cited from earlier work
[4] = Response of unanesthetized dogs to intravenous infusion on first day after coronary artery ligation (Table III)
Experimental: In this method the dogs were anesthetized, the heart was exposed, and the anterior descending branch of the left coronary artery was ligated in two stages. The thorax was closed and the dog was allowed to recover from the anesthesia. […] The electrocardiographic, cardiovascular and other drug effects were monitored.
The dosage schedule was: 1st hr.: 15 mg/kg/hr; 2nd hr.: 30 mg/kg/hr; 3rd hr.: 60 mg/kg/hr. Infusions were stopped at the first sign of toxicity other than emesis.

[5] = test system: mice; experiment: Ataxia in mice just before CHCl3 challenge, oral (Table I); assay type: in vivo; conditions: LD0.1 dose
Excerpt: Immediately after cessation of respiration each mouse was removed from the beaker, its thorax was opened and its heart was examined for the presence of absence of ventricular fibrillation. The nature of the cardiac rhythm was then confirmed by electrocardiographic recordings. Whenever fibrillation was not evident, the heart was touched with forceps. The heart was considered as fibrillating if fine tremulous movements were present on the surface of the ventricle and persisted for at least 5 seconds after the thoracotomy or the mechanical stimulus. Ventricular fibrillation was considered absent in those animals in which coordinated ventricular activity was evident following such procedures.

[6] = assay type: in vivo, dogs; conditions: for Overt toxicity: convulsions, onset / Overt toxicity: emesis / Overt toxicity: nystagmus / Overt toxicity: other / Overt toxicity: tremors / Overt toxicity: convulsions, duration: po
Excerpt: (§2) Vol. 1, pp. 1318-1328 (1950). […] The electrocardiographic, cardiovascular and other drug effects were monitored.

[7] = test system: frog sciatic nerve; experiment: In vitro local anesthetic effect on frog sciatic nerve; conditions: 20 mM solution, after exposure for 96 min
[8] = Expected antiarrhythmic oral dosage in humans; assay type: in vivo
[9] = Relative potency against chloroform induced fibrillation in mice, subcutaneous (Table IV); assay type: in vivo; conditions: 20 min, statistical mean (confidence limits)
Experimental: as §1
The procedure used was a modification of the method previously described. The modification involved using a standard time of 20 minutes for each test run and four different doses of the same drug. Route of administration was subcutaneous.

[10] = Ventricular arrhythmias in unanesthetized dogs after coronary artery ligation (modified Harris method), 3-amino-2',6'-butyroxylidide (Table VI); assay type: in vivo
Excerpt: as §2
The electrocardiographic, cardiovascular and other drug effects were monitored.

[11] = i.v. infusion, cumulative, one value per dog
[12] = oral and intravenous doses, unanesthetized dogs
[13] = intravenous, first day after ligation

**Q.** Which ataxia incidence [1] does the source give for CCNC(C)C(=O)Nc1c(C)cc(C)cc1C (centres unmarked) [secondary amine] here?
**A.** 100%

**Q.** What about the convulsions incidence [1] of the same compound?
**A.** 90%

**Q.** For CCN(CC)CC(=O)Nc1c(C)cccc1C [lidocaine, 2-diethylamino-2',6'-acetoxylidide], which “Proportion of mice in each group protected against fibrillation at LD0.1” value (shortened to “Proportion of mice … at LD0.1”) ([2]; 10 min before CHCl3 challenge) is on record?
**A.** 9/10

**Q.** What about the “Proportion of mice … at LD0.1” value ([2]; 20 min before CHCl3 challenge) of the same compound?
**A.** 10/10

**Q.** What about the “Proportion of mice … at LD0.1” value ([2]; 40 min before CHCl3 challenge) of the same compound?
**A.** 7/10

**Q.** What about the “Proportion of mice … at LD0.1” value ([2]; 80 min before CHCl3 challenge) of the same compound?
**A.** 0/10

**Q.** What about the “duration of blood levels” value ([3]; lidocaine) of the same compound?
**A.** fairly short

**Q.** And the oral effectiveness ([3]; oral, due to low levels of the drug in the blood)?
**A.** not orally effective

**Q.** And the “loss of the drug after oral administration” value ([3]; oral, probably due to the functions of the liver)?
**A.** pronounced loss of the drug

**Q.** And the minimal effective dose ([4]; Canis lupus familiaris, iv, read-out: Antiarrhythmic doses (cumul.), i.v. infusion, cumulative, one value per dog)?
**A.** 36 mg/kg

**Q.** What about the “Antiarrhythmic doses (cumul.)” value [4, 11] of the same compound?
**A.** 55 mg/kg

**Q.** And the “Number of dogs showing antiarrhythmic effect” value ([4]; i.v. infusion, dogs tested: lidocaine 2, 2-amino-2',6'-propionoxylidide 1, abnormal beats < 5% of total)?
**A.** 2

**Q.** And the “Duration of antiarrhythmic effect” value ([4]; i.v. infusion, return of 50% of suppressed abnormal ventricular beats, one value per dog)?
**A.** 5 min

**Q.** What about the “Proportion of mice in each group having ataxia just before CHCl3 challenge” value ([5]; 10 min) of the same compound?
**A.** 0/10

**Q.** What about the “Proportion of mice in each group having ataxia just before CHCl3 challenge” value ([5]; 20 min) of the same compound?
**A.** 9/10

**Q.** And the “Proportion of mice in each group having ataxia just before CHCl3 challenge” value ([5]; 40 min)?
**A.** 0/10

**Q.** And the “Proportion of mice in each group having ataxia just before CHCl3 challenge” value ([5]; 80 min)?
**A.** 0/10

**Q.** With Cc1cccc(C)c1NC(=O)C(C)N (racemic) [2-amino-2',6'-propionoxylidide] as the compound, how does the “Proportion of mice … at LD0.1” value ([2]; 20 min before CHCl3 challenge) read?
**A.** 9/10

**Q.** And the “Proportion of mice … at LD0.1” value ([2]; 40 min before CHCl3 challenge)?
**A.** 9/10

**Q.** And the “Proportion of mice … at LD0.1” value ([2]; 80 min before CHCl3 challenge)?
**A.** 10/10

**Q.** What about the “Proportion of mice … at LD0.1” value ([2]; 160 min before CHCl3 challenge) of the same compound?
**A.** 9/10

**Q.** And the adverse reactions ([6]; dog, in vivo)?
**A.** unaccompanied by any discernible adverse reactions

**Q.** What about the “Overt toxicity: convulsions, onset” value ([6]; dog, in vivo, 50 mg/kg) of the same compound?
**A.** None

**Q.** And the “Overt toxicity: emesis” value ([6]; dog, in vivo, 50 mg/kg)?
**A.** None

**Q.** What about the “Overt toxicity: nystagmus” value ([6]; dog, in vivo, 50 mg/kg) of the same compound?
**A.** None

**Q.** And the “Overt toxicity: other” value ([6]; dog, in vivo, 50 mg/kg)?
**A.** None

**Q.** What about the “Overt toxicity: tremors” value ([6]; dog, in vivo, 50 mg/kg) of the same compound?
**A.** None

**Q.** What about the “Overt toxicity: convulsions, onset” value ([6]; dog, in vivo, 100 mg/kg) of the same compound?
**A.** None

**Q.** And the “Overt toxicity: emesis” value ([6]; dog, in vivo, 100 mg/kg)?
**A.** None

**Q.** What about the “Overt toxicity: nystagmus” value ([6]; dog, in vivo, 100 mg/kg) of the same compound?
**A.** None

**Q.** What about the “Overt toxicity: other” value ([6]; dog, in vivo, 100 mg/kg) of the same compound?
**A.** None

**Q.** And the “Overt toxicity: tremors” value ([6]; dog, in vivo, 100 mg/kg)?
**A.** None

**Q.** And the “Overt toxicity: convulsions, onset” value ([6]; dog, in vivo, 150 mg/kg)?
**A.** None

**Q.** What about the “Overt toxicity: nystagmus” value ([6]; dog, in vivo, 150 mg/kg) of the same compound?
**A.** None

**Q.** What about the “Overt toxicity: other” value ([6]; dog, in vivo, 150 mg/kg) of the same compound?
**A.** None

**Q.** What about the “Overt toxicity: tremors” value ([6]; dog, in vivo, 150 mg/kg) of the same compound?
**A.** None

**Q.** What about the “Overt toxicity: convulsions, duration” value ([6]; dog, in vivo, 200 mg/kg) of the same compound?
**A.** > 3 min

**Q.** What about the “Overt toxicity: nystagmus” value ([6]; dog, in vivo, 200 mg/kg) of the same compound?
**A.** None

**Q.** What about the “Overt toxicity: other” value ([6]; dog, in vivo, 200 mg/kg) of the same compound?
**A.** None

**Q.** And the “Overt toxicity: convulsions, duration” value ([6]; dog, in vivo, 300 mg/kg)?
**A.** 17 min

**Q.** What about the “Overt toxicity: convulsions, onset” value ([6]; dog, in vivo, 300 mg/kg) of the same compound?
**A.** None

**Q.** What about the “Overt toxicity: emesis” value ([6]; dog, in vivo, 300 mg/kg) of the same compound?
**A.** None

**Q.** And the “Overt toxicity: nystagmus” value ([6]; dog, in vivo, 300 mg/kg)?
**A.** None

**Q.** What about the “Overt toxicity: other” value ([6]; dog, in vivo, 300 mg/kg) of the same compound?
**A.** None

**Q.** What about the “Overt toxicity: tremors” value ([6]; dog, in vivo, 300 mg/kg) of the same compound?
**A.** None

**Q.** What about the “suppression of the ventricular arrhythmias” value [6, 12] of the same compound?
**A.** distinct suppression of the ventricular arrhythmias

**Q.** And the “Maximum antiarrhythmic activity, partial clearing, onset” value ([6]; oral, cumul. dose 50 mg/kg as HCl, 50-95% reduction of abnormal ventricular beats)?
**A.** None

**Q.** And the “Toxic doses (cumul.)” value [4, 11]?
**A.** 81 mg/kg

**Q.** And the “block of the action potential of the nerve” value [7]?
**A.** does not block the action potential at all

**Q.** What about the “Proportion of mice in each group having ataxia just before CHCl3 challenge” value ([5]; 20 min) of the same compound?
**A.** 10/10

**Q.** And the “Proportion of mice in each group having ataxia just before CHCl3 challenge” value ([5]; 40 min)?
**A.** 10/10

**Q.** And the “Proportion of mice in each group having ataxia just before CHCl3 challenge” value ([5]; 80 min)?
**A.** 8/10

**Q.** What about the “Proportion of mice in each group having ataxia just before CHCl3 challenge” value ([5]; 160 min) of the same compound?
**A.** 5/10

**Q.** And the “dosage that should be effective for humans” value [8]?
**A.** about 6 grams/day

**Q.** And the convulsions incidence ([1]; 251 mg/kg)?
**A.** 34%

**Q.** And the “Relative potency (ED50 test compound/ED50 lidocaine)” value [9]?
**A.** 0.33 (0.20-0.54)

**Q.** With CCN(CC)CCNC(=O)c1ccc(N)cc1 [PROCAINAMIDE] as the compound, how does the “Proportion of mice … at LD0.1” value ([2]; 5 min before CHCl3 challenge) read?
**A.** 0/10

**Q.** What about the “Proportion of mice … at LD0.1” value ([2]; 10 min before CHCl3 challenge) of the same compound?
**A.** 1/10

**Q.** What about the “Proportion of mice … at LD0.1” value ([2]; 20 min before CHCl3 challenge) of the same compound?
**A.** 0/10

**Q.** What about the “Proportion of mice in each group having ataxia just before CHCl3 challenge” value ([5]; 5 min) of the same compound?
**A.** 0/10

**Q.** What about the “Proportion of mice in each group having ataxia just before CHCl3 challenge” value ([5]; 10 min) of the same compound?
**A.** 0/10

**Q.** What about the “Proportion of mice in each group having ataxia just before CHCl3 challenge” value ([5]; 20 min) of the same compound?
**A.** 0/10

**Q.** Which results are given for C=C[C@H]1C[N@@]2CC[C@H]1C[C@@H]2[C@@H](O)c1ccnc2ccc(OC)cc12 [QUINIDINE]?
**A.** Proportion of mice in each group protected against fibrillation at LD0.1 ([2]; 20 min before CHCl3 challenge): 10/10; Proportion of mice in each group protected against fibrillation at LD0.1 ([2]; 40 min before CHCl3 challenge): 9/9; Proportion of mice in each group protected against fibrillation at LD0.1 ([2]; 80 min before CHCl3 challenge): 9/9; Proportion of mice in each group having ataxia just before CHCl3 challenge ([5]; 20 min): 0/10; Proportion of mice in each group having ataxia just before CHCl3 challenge ([5]; 40 min): 2/10; death ([5]; 40 min group): 1 death; death ([5]; 80 min group): 1 death

**Q.** Which adverse reactions ([10]; dog, in vivo) does the source give for Cc1cccc(C)c1NC(=O)CC(C)N (centres unmarked) [3-amino-2',6'-butyroxylidide] here?
**A.** unaccompanied by any discernible adverse reactions

**Q.** And the “Toxicity: convulsions” value [10, 13]?
**A.** None

**Q.** And the “Toxicity: deaths” value [10, 13]?
**A.** None

**Q.** And the “suppression of the ventricular arrhythmias” value [10, 12]?
**A.** distinct suppression of the ventricular arrhythmias

**Q.** What about the “Relative potency (ED50 test compound/ED50 lidocaine)” value [9] of the same compound?
**A.** 0.99 (0.60-1.9)

— US4237068A, “Primary aminoacylanilides” (priority 1978, dated 1980)
